pIC50: −log10 of the molar value.
Each molecule was assayed on MCF7 cells (assay: Anti-proliferation (viability) of MCF7 cells (Table 7, FIG. 2B)). Conditions: Homo sapiens, MCF7, MCF7 cells, 3-6 days, 10-point serial dilution; read-out: GI IC50 in MCF-7.
Assay type: cell-based

**Q.** `CC(=O)c1c(C)c2cnc(Nc3ccc(N4CCC(NCC(=O)N5CCC(Nc6nc(NC(C)C)ccc6C(=O)Nc6ccc(N(C)C)nn6)CC5)CC4)cn3)nc2n(C2CCCC2)c1=O` [CPD-357, 2-((1-((1-(6-((6-acetyl-8-cyclopentyl-5-methyl-7-oxo-7,8-dihydropyrido[2,3-d]pyrimidin-2-yl)amino)pyridin-3-yl)piperidin-4-yl)glycyl)piperidin-4-yl)amino)-N-(6-(dimethylamino)pyridazin-3-yl)-6-(isopropylamino)nicotinamide] was tested. Which pIC50 did it give?
**A.** The pIC50 was over 7.30.

**Q.** With `[2H]C([2H])([2H])Nc1ccc(C(=O)Nc2cc(C)on2)c(NC2CC(C(C)NC(=O)CN3CCN(c4ccc(Nc5ncc6c(C)c(C(C)=O)c(=O)n(C7CCCC7)c6n5)nc4)CC3)C2)n1` (stereo not drawn) [CPD-361, 2-((3-(1-(2-(4-(6-((6-acetyl-8-cyclopentyl-5-methyl-7-oxo-7,8-dihydropyrido[2,3-d]pyrimidin-2-yl)amino)pyridin-3-yl)piperazin-1-yl)acetamido)ethyl)cyclobutyl)amino)-6-((methyl-d3)amino)-N-(5-methylisoxazol-3-yl)nicotinamide] as the molecule, how does the pIC50 read?
**A.** Its pIC50 is under 7.00.

**Q.** How did the pIC50 turn out when `CNc1ccc(C(=O)Nc2ccc(N(C)C)nn2)c(NC2CC3(C2)CC(C(=O)N2CC(N4CCN(c5ccc(Nc6ncc7c(C)c(C(C)=O)c(=O)n(C8CCCC8)c7n6)nc5)CC4)C2)C3)n1` (stereo not drawn) [CPD-362, 2-((6-(3-(4-(6-((6-acetyl-8-cyclopentyl-5-methyl-7-oxo-7,8-dihydropyrido[2,3-d]pyrimidin-2-yl)amino)pyridin-3-yl)piperazin-1-yl)azetidine-1-carbonyl)spiro[3.3]heptan-2-yl)amino)-N-(6-(dimethylamino)pyridazin-3-yl)-6-(methylamino)nicotinamide] was run?
**A.** Its pIC50 is under 7.00.

**Q.** How did the pIC50 turn out when `CNc1ccc(C(=O)Nc2ccc(N(C)C)nn2)c(NC2CC3(C2)CC(C(=O)N2CC4(CCN(c5ccc(Nc6ncc7c(C)c(C(C)=O)c(=O)n(C8CCCC8)c7n6)nc5)CC4)C2)C3)n1` (stereo not drawn) [CPD-363] was run?
**A.** Its pIC50 is under 7.00.

**Q.** With `CNc1ccc(C(=O)Nc2ccc(N(C)C)nn2)c(NC2CC3(C2)CN(C(=O)C2CN(C4CCN(c5ccc(Nc6ncc7c(C)c(C(C)=O)c(=O)n(C8CCCC8)c7n6)nc5)CC4)C2)C3)n1` [CPD-364, 2-((2-(1-(1-(6-((6-acetyl-8-cyclopentyl-5-methyl-7-oxo-7,8-dihydropyrido[2,3-d]pyrimidin-2-yl)amino)pyridin-3-yl)piperidin-4-yl)azetidine-3-carbonyl)-2-azaspiro[3.3]heptan-6-yl)amino)-N-(6-(dimethylamino)pyridazin-3-yl)-6-(methylamino)nicotinamide] as the molecule, how does the pIC50 read?
**A.** The pIC50 was under 7.00.

**Q.** How did the pIC50 turn out when `CC(=O)c1c(C)c2cnc(Nc3ccc(N4CCN(C(C)CC(=O)NC5CC(Nc6nc(NC(C)C)ccc6C(=O)Nc6ccc(N(C)C)nn6)C5)CC4)cn3)nc2n(C2CCCC2)c1=O` (stereo not drawn) [CPD-365, 2-((3-(3-(4-(6-((6-acetyl-8-cyclopentyl-5-methyl-7-oxo-7,8-dihydropyrido[2,3-d]pyrimidin-2-yl)amino)pyridin-3-yl)piperazin-1-yl)butanamido)cyclobutyl)amino)-N-(6-(dimethylamino)pyridazin-3-yl)-6-(isopropylamino)nicotinamide] was run?
**A.** Its pIC50 is over 7.30.

**Q.** How did the pIC50 turn out when `CC(=O)c1c(C)c2cnc(Nc3ccc(N4CCN(C5(C(=O)NC6CC7(C6)CC(Nc6nc(NC(C)C)ccc6C(=O)Nc6cn(C)c(C8CC8)n6)C7)CC5)CC4)cn3)nc2n(C2CCCC2)c1=O` (stereo not drawn) [CPD-366, 2-((6-(1-(4-(6-((6-acetyl-8-cyclopentyl-5-methyl-7-oxo-7,8-dihydropyrido[2,3-d]pyrimidin-2-yl)amino)pyridin-3-yl)piperazin-1-yl)cyclopropane-1-carboxamido)spiro[3.3]heptan-2-yl)amino)-N-(2-cyclopropyl-1-methyl-1H-imidazol-4-yl)-6-(isopropylamino)nicotinamide] was run?
**A.** Its pIC50 is under 7.00.

**Q.** `CC(=O)c1c(C)c2cnc(Nc3ccc(N4CCN(CC(=O)N5CCC(Nc6nc(NC(C)C)ccc6C(=O)Nc6ccc(N(C)C)nn6)CC5)CC4)cn3)nc2n(C2CCCC2)c1=O` [CPD-369, 2-((1-(2-(4-(6-((6-acetyl-8-cyclopentyl-5-methyl-7-oxo-7,8-dihydropyrido[2,3-d]pyrimidin-2-yl)amino)pyridin-3-yl)piperazin-1-yl)acetyl)piperidin-4-yl)amino)-N-(6-(dimethylamino)pyridazin-3-yl)-6-(isopropylamino)nicotinamide] was tested. Which pIC50 did it give?
**A.** Its pIC50 is 7.00 to 7.30.

**Q.** How did the pIC50 turn out when `CC(=O)c1c(C)c2cnc(Nc3ccc(N4CCN(C(C)CC(=O)N5CCC(Nc6nc(NC(C)C)ccc6C(=O)Nc6ccc(N(C)C)nn6)C5)CC4)cn3)nc2n(C2CCCC2)c1=O` (stereo not drawn) [CPD-370, 2-((1-(3-(4-(6-((6-acetyl-8-cyclopentyl-5-methyl-7-oxo-7,8-dihydropyrido[2,3-d]pyrimidin-2-yl)amino)pyridin-3-yl)piperazin-1-yl)butanoyl)pyrrolidin-3-yl)amino)-N-(6-(dimethylamino)pyridazin-3-yl)-6-(isopropylamino)nicotinamide] was run?
**A.** The pIC50 was over 7.30.

**Q.** How did the pIC50 turn out when `CC(=O)c1c(C)c2cnc(Nc3ccc(N4CCN(C5(C(=O)NC6CC7(C6)CC(Nc6nc(NC(C)C)ccc6C(=O)Nc6cc(C)on6)C7)CC5)CC4)cn3)nc2n(C2CCCC2)c1=O` (stereo not drawn) [CPD-371, 2-((6-(1-(4-(6-((6-acetyl-8-cyclopentyl-5-methyl-7-oxo-7,8-dihydropyrido[2,3-d]pyrimidin-2-yl)amino)pyridin-3-yl)piperazin-1-yl)cyclopropane-1-carboxamido)spiro[3.3]heptan-2-yl)amino)-6-(isopropylamino)-N-(5-methylisoxazol-3-yl)nicotinamide] was run?
**A.** The pIC50 was under 7.00.

**Q.** How did the pIC50 turn out when `CC(=O)c1c(C)c2cnc(Nc3ccc(N4CCC(NCC(=O)N5CCC(Nc6nc(NC(C)C)ccc6C(=O)Nc6ccc(N(C)C)nn6)C5)CC4)cn3)nc2n(C2CCCC2)c1=O` (stereo not drawn) [CPD-372, 2-((1-((1-(6-((6-acetyl-8-cyclopentyl-5-methyl-7-oxo-7,8-dihydropyrido[2,3-d]pyrimidin-2-yl)amino)pyridin-3-yl)piperidin-4-yl)glycyl)pyrrolidin-3-yl)amino)-N-(6-(dimethylamino)pyridazin-3-yl)-6-(isopropylamino)nicotinamide] was run?
**A.** Its pIC50 is under 7.00.

**Q.** With `CNc1ccc(C(=O)Nc2ccc(N(C)C)nn2)c(NC2CC3(C2)CC(C(=O)NC2CC4(CCN(c5ccc(Nc6ncc7c(C)c(C(C)=O)c(=O)n(C8CCCC8)c7n6)nc5)CC4)C2)C3)n1` (stereo not drawn) [CPD-374, 2-((6-((7-(6-((6-acetyl-8-cyclopentyl-5-methyl-7-oxo-7,8-dihydropyrido[2,3-d]pyrimidin-2-yl)amino)pyridin-3-yl)-7-azaspiro[3.5]nonan-2-yl)carbamoyl)spiro[3.3]heptan-2-yl)amino)-N-(6-(dimethylamino)pyridazin-3-yl)-6-(methylamino)nicotinamide] as the molecule, how does the pIC50 read?
**A.** The pIC50 was under 7.00.

**Q.** How did the pIC50 turn out when `CNc1ccc(C(=O)Nc2ccc(N(C)C)nn2)c(NC2CC(C(=O)NC3CC4(CCN(c5ccc(Nc6ncc7c(C)c(C(C)=O)c(=O)n(C8CCCC8)c7n6)nc5)CC4)C3)C2)n1` (stereo not drawn) [CPD-375, 2-((3-((7-(6-((6-acetyl-8-cyclopentyl-5-methyl-7-oxo-7,8-dihydropyrido[2,3-d]pyrimidin-2-yl)amino)pyridin-3-yl)-7-azaspiro[3.5]nonan-2-yl)carbamoyl)cyclobutyl)amino)-N-(6-(dimethylamino)pyridazin-3-yl)-6-(methylamino)nicotinamide] was run?
**A.** The pIC50 was under 7.00.

**Q.** With `CNc1ccc(C(=O)Nc2ccc(N(C)C)nn2)c(NC2CC3(C2)CC(C(=O)N2CC(C4CCN(c5ccc(Nc6ncc7c(C)c(C(C)=O)c(=O)n(C8CCCC8)c7n6)nc5)CC4)C2)C3)n1` (stereo not drawn) [CPD-376, 2-((6-(3-(1-(6-((6-acetyl-8-cyclopentyl-5-methyl-7-oxo-7,8-dihydropyrido[2,3-d]pyrimidin-2-yl)amino)pyridin-3-yl)piperidin-4-yl)azetidine-1-carbonyl)spiro[3.3]heptan-2-yl)amino)-N-(6-(dimethylamino)pyridazin-3-yl)-6-(methylamino)nicotinamide] as the molecule, how does the pIC50 read?
**A.** Its pIC50 is under 7.00.

**Q.** `CC(=O)c1c(C)c2cnc(Nc3ccc(N4CCN(CC(=O)NC(C)C5CC(Nc6nc(NC(C)C)ccc6C(=O)Nc6cc(C)on6)C5)CC4)cn3)nc2n(C2CCCC2)c1=O` (stereo not drawn) [CPD-377, 2-((3-(1-(2-(4-(6-((6-acetyl-8-cyclopentyl-5-methyl-7-oxo-7,8-dihydropyrido[2,3-d]pyrimidin-2-yl)amino)pyridin-3-yl)piperazin-1-yl)acetamido)ethyl)cyclobutyl)amino)-6-(isopropylamino)-N-(5-methylisoxazol-3-yl)nicotinamide] was tested. Which pIC50 did it give?
**A.** Its pIC50 is 7.00 to 7.30.

**Q.** `[2H]C([2H])([2H])Nc1ccc(C(=O)Nc2ccc(N(C)C)nn2)c(NC2CC3(C2)CC(C(=O)N2CC4(CCN(c5ccc(Nc6ncc7c(C)c(C(C)=O)c(=O)n(C8CCCC8)c7n6)nc5)C4)C2)C3)n1` (stereo not drawn) [CPD-378, 2-((6-(6-(6-((6-acetyl-8-cyclopentyl-5-methyl-7-oxo-7,8-dihydropyrido[2,3-d]pyrimidin-2-yl)amino)pyridin-3-yl)-2,6-diazaspiro[3.4]octane-2-carbonyl)spiro[3.3]heptan-2-yl)amino)-N-(6-(dimethylamino)pyridazin-3-yl)-6-((methyl-d3)amino)nicotinamide] was tested. Which pIC50 did it give?
**A.** Its pIC50 is under 7.00.

**Q.** How did the pIC50 turn out when `[2H]C([2H])([2H])Nc1ccc(C(=O)Nc2ccc(N(C)C)nn2)c(NC2CC3(C2)CC(C(=O)N2CCC4(CCN(c5ccc(Nc6ncc7c(C)c(C(C)=O)c(=O)n(C8CCCC8)c7n6)nc5)C4)C2)C3)n1` (stereo not drawn) [CPD-379, 2-((6-(7-(6-((6-acetyl-8-cyclopentyl-5-methyl-7-oxo-7,8-dihydropyrido[2,3-d]pyrimidin-2-yl)amino)pyridin-3-yl)-2,7-diazaspiro[4.4]nonane-2-carbonyl)spiro[3.3]heptan-2-yl)amino)-N-(6-(dimethylamino)pyridazin-3-yl)-6-((methyl-d3)amino)nicotinamide] was run?
**A.** The pIC50 was under 7.00.

**Q.** How did the pIC50 turn out when `[2H]C([2H])([2H])Nc1ccc(C(=O)Nc2ccc(N(C)C)nn2)c(NC2CC3(C2)CC(C(=O)N2CCC4(CCN(c5ccc(Nc6ncc7c(C)c(C(C)=O)c(=O)n(C8CCCC8)c7n6)nc5)CC4)C2)C3)n1` (stereo not drawn) [CPD-380, 2-((6-(8-(6-((6-acetyl-8-cyclopentyl-5-methyl-7-oxo-7,8-dihydropyrido[2,3-d]pyrimidin-2-yl)amino)pyridin-3-yl)-2,8-diazaspiro[4.5]decane-2-carbonyl)spiro[3.3]heptan-2-yl)amnion)-N-(6-(dimethylamino)pyridazin-3-yl)-6-((methyl-d3)amnion)nicotinamide] was run?
**A.** Its pIC50 is under 7.00.
